# Where a SMILES comes first, the peptide text is derived from it. Bridges are numbered along the chain shown (N, C = ends). Roman numbers before positions name the chains, in order. Where no end group is shown, it is not given here.
# T1: brain-derived NEP (Mus musculus, UniProt Q61391)
# T1 construct: Clear supernatants were used as membrane-extracted fractions; from tissue; host or cells: adult mouse brain without cerebellum, Triton X-100-extracted membrane fraction
# T1 sequence (Q61391 1-750): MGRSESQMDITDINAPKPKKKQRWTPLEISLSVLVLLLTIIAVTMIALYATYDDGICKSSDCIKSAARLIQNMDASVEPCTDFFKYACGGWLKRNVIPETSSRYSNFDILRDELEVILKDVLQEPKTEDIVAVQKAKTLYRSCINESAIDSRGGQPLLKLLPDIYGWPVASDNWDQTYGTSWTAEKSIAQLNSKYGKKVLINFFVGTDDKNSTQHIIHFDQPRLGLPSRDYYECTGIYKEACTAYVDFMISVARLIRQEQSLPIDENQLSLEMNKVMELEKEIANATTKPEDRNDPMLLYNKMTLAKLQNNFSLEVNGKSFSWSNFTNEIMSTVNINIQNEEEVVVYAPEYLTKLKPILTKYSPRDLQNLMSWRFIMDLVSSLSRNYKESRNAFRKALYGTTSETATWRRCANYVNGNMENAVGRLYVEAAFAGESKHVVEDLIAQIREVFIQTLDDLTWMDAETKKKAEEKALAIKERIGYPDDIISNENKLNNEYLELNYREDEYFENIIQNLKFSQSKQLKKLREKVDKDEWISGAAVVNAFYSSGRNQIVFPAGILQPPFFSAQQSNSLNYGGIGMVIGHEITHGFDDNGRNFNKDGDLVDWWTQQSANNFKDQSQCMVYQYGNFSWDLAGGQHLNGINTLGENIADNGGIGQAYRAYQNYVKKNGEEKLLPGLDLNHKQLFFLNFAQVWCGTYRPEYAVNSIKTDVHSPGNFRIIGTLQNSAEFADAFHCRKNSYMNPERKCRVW
# B1: NLp2, NL1-derived synthetic peptide (tetramer on a lysine backbone) (peptide)
# peptide: ITVNYRLG
# modifications: also: tetramer: four copies coupled to a lysine backbone
# B2: Neurolide, NL1-derived synthetic peptide (tetramer on a lysine backbone) (peptide)
# peptide: SEGNRWSNSTKGLFQRA
# modifications: also: tetramer: four copies coupled to a lysine backbone
# Legend:
# Aβ1-42 = target: T2, Aβ1-42 (Homo sapiens, UniProt P05067); experiment: Aβ1-42 aggregation assay (thioflavin T fluorescence); settings: 75 μM Aβ1-42 + 10 μM peptide, 37 °C, 8 days, 50 mM Tris pH 7.4, ThT 5 μM, triplicates; slopes compared with Aβ alone
# T2 construct: Aβ1-42, at a final concentration of 75 μM (pH 7.4); purchased Bachem AG (Bubendorf, Switzerland) or Schafer-N; host or cells: synthetic peptide
# T2 sequence (P05067 672-713): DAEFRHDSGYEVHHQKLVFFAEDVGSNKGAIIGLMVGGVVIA
# Protocol: Aβ1-42 was dissolved in sterile deionized water to a final concentration of 1 mM. Then, the peptide was subjected to a basic shock by adding 2 M NaOH to pH 12 followed by neutralization with 1 M HCl. Aβ1-42, at a final concentration of 75 μM (pH 7.4) either alone or in combination with NL1 (1 μM), neurolide (10 μM), or NLp7 (10 μM), was loaded in triplicates on 96-well plate. Immediately after mixing the samples, thioflavin T (5 μM, ThT; Sigma-Aldrich), dissolved in the aggregation buffer (50 mM Tris, pH 7.4), was added to wells and plate was incubated at 37 °C for 8 days. The formation of beta-amyloid aggregates was monitored first for 210 min and then every 24 h by recording changes in ThT fluorescence at excitation/emission (Ex/Em) = 440/482 nm.
# brain-derived NEP = target: T1, brain-derived NEP; experiment: Neprilysin activity in NEP-enriched brain membrane fraction of WT mice; format: biochemical, mouse (C57Bl/6j); settings: 40 μg protein, Thiorphan 100 nM
# Protocol: To measure NEP activity in brain tissue, whole brains without cerebellum were dissected from adult mice (C57Bl/6j or 5XFAD) and homogenized with a Teflon-glass homogenizer in five volumes (w/v) of ice-cold lysis buffer containing PBS (pH 7.4), 0.25 M sucrose and protease inhibitor cocktail (Complete™, EDTA-free, Roche Diagnostics, Indianapolis, IN). The homogenates were centrifuged at 9000 × g for 15 min at 4 °C. The supernatants were further centrifuged at 20,000 × g at 4 °C for 20 min. The resulting pellets were solubilized in resuspension buffer containing PBS (pH 7.4) and 1% Triton X-100 for 1 h on ice and again centrifuged at 20,000 × g at 4 °C for 20 min. Clear supernatants were used as membrane-extracted fractions. Protein concentrations of Triton-extracted membrane fractions were determined using the Pierce BCA Protein Assay kit (Thermo Fisher Scientific). The standard assay mixture consisted of membrane fraction containing 40 μg total protein diluted in 40 μl of dilution buffer, 10 μl of testing compound (NL1, neurolide or vehicle), and 50 μl of NEP substrate (5-FAM/QXL; Anaspec) in a total volume of 100 μl. The reaction was initiated by adding substrate to the assay mixture. […] Positive and negative controls were set up according to the manufacturer’s protocol (Anaspec). Fluorescence was measured at Ex/Em = 485/535 nm every 20 min for 2 h. The data were expressed as percentage of relative activity of neprilysin.
# Aβ1-40 = target: T3, Aβ1-40 (Homo sapiens, UniProt P05067); experiment: Competitive ELISA, binding to biotinylated Aβ1-40; settings: Table 1, title prints Aβ1-42, text and method Aβ1-40, IC50 interpreted as KD
# T3 construct: biotinylated Aβ1-40, at final concentration 400 nM; purchased Bachem AG (Bubendorf, Switzerland) or Schafer-N; host or cells: synthetic peptide
# T3 sequence (P05067 672-711): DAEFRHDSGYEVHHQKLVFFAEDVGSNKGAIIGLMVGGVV
# Protocol: NL1 and NL1-derived peptide binding to Aβ was measured by competitive ELISA using the shorter Aβ1-40 peptide with a slower polymerization constant, optimized for this binding assay. Recombinant NL1 (3.125 nM) was immobilized on a poly-sorb 96-well plate (NUNC, Roskilde, Denmark) using sodium bicarbonate buffer (pH 9.6), and left overnight at 4 °C, followed by washing with PBST buffer (PBS supplemented with 0.1% [vol/vol] Tween-20, pH 7.4). In separate tubes, biotinylated Aβ1-40, at final concentration 400 nM, was premixed with serially diluted NL1 or NL1-derived peptides for 30 min. A reversed version of Aβ (Aβ40-1) was used as the respective negative control (Supplementary Fig. 1). After preincubation, the samples were centrifuged at 20,000 × g for 10 min at 4 °C and 100 μl of the mixtures were transferred in triplicates onto the precoated ELISA plate. Plates were incubated at room temperature for 4 h, followed by washing and incubation with streptavidin-HRP conjugate (1:1000, 1 h; Dako, Glostrup, Denmark). The signal was developed with TMB ONE (KEM-EN-TEC, Denmark), and the reaction was terminated with 0.2 M H2SO4. Absorbance was measured at 450 nm on a Wallac VICTOR2 1420 Multilabel Counter (PerkinElmer, Hvidovre, Denmark). KD values were derived by sigmoidal dose–response (variable slope) fit of NL1 and neurolide dose–response curves after log transformation according to GraphPad Prism (version 6, GraphPad, San Diego, CA, USA). Obtained inhibitory concentration IC50 value was interpreted as KD value.
# [1] = target: T4, recombinant neprilysin (NEP) (Homo sapiens, UniProt P08473); experiment: Neprilysin activity assay with recombinant enzyme (SensoLyte 520); format: biochemical; settings: peptide 5 μM, equimolar to neurolide; 5-FAM/QXL substrate, 2 h; four to five independent experiments
# T4 construct: purchased Anaspec, Fremont, California, USA (SensoLyte 520 Neprilysin Activity Assay Kit)
# T4 sequence (P08473 whole entry): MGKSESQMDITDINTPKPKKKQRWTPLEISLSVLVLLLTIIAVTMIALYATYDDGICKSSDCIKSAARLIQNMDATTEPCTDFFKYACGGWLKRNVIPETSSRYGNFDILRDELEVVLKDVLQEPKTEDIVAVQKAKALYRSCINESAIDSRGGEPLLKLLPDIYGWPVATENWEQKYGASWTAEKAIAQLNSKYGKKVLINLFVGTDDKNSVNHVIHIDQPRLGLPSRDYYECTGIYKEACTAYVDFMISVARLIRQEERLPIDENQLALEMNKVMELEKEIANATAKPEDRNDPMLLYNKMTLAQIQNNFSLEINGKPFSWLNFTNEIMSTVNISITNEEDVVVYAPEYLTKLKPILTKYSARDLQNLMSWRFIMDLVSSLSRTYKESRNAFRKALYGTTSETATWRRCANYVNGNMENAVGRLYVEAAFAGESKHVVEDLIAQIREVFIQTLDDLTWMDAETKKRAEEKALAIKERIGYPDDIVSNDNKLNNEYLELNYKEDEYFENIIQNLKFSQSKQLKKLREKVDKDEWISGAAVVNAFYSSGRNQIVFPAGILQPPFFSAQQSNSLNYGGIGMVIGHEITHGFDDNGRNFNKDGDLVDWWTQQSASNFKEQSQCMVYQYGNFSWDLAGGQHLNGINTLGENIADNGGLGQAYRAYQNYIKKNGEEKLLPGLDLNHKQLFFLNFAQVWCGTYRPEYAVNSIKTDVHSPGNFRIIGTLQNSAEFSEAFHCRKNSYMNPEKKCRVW
# Protocol: NEP activity was measured using the SensoLyte 520 Neprilysin Activity Assay Kit *Fluorimetric* (Anaspec, Fremont, California, USA) following the protocol provided by the manufacturer. Briefly, Aβ1-42 was dissolved in anhydrous DMSO to a stock concentration of 5 mM, followed by dilutions in assay buffer (100 μM, 50 μM, and 5 μM). Both NL1 (3 μM, 1 μM, 0.3 μM, 0.1 μM) and neurolide (100, 10, 5, and 1 μM) were dissolved in assay buffer. Randomly selected two additional NL1-derived peptides, NLp4, and NLp7 (5 μM, Table 1), were included in the analysis. The NEP solution (40 μl) was mixed with 10 μl of either NL1 or peptides and supplemented with 50 μl of NEP substrate (5-FAM/QXL), and the final mixture was incubated in black optical-bottom 96-well plate (Nunc, Rochester, New York, USA). In co-stimulation experiments, Aβ1-42, prepared as described above, was added to the solution in final concentrations either 0.5 μM or 5 μM. The fluorescence signal was recorded at Ex/Em = 485/535 nm every 20 min for 2 h. The data are presented as the relative activity of NEP alone.
# [2] = target: Recombinant rat neuroligin-1 (NL1), soluble extracellular domain (rat) (UniProt Q62765); experiment: SPR; Biacore 2000; about 2000 RU of NL1 immobilised on a CM4 chip by amine coupling; 25 °C; HBS-P (10 mM HEPES pH 7.4, 150 mM NaCl, 0.005% P20) with 3 mM CaCl2; 20 μl/min; 1:1 Langmuir model; apparent KD = kd/ka
# [3] = target: Biotinylated amyloid-β peptide 1-40 (Aβ1-40); experiment: ELISA; competitive ELISA: NL1 (3.125 nM) coated on the plate; biotinylated Aβ1-40 (400 nM; Aβ40-1 as negative control) premixed 30 min with serially diluted NL1 or NL1-derived peptides; 4 h at room temperature; streptavidin-HRP; IC50 interpreted as KD
molecule,measurement,setting,value
"CC[C@H](C)[C@H](N)C(=O)N[C@H](C(=O)N[C@H](C(=O)N[C@@H](CC(N)=O)C(=O)N[C@@H](Cc1ccc(O)cc1)C(=O)N[C@@H](CCCNC(=N)N)C(=O)N[C@@H](CC(C)C)C(=O)NCC(=O)NCCCC[C@H](NC(=O)CNC(=O)[C@H](CC(C)C)NC(=O)[C@H](CCCNC(=N)N)NC(=O)[C@H](Cc1ccc(O)cc1)NC(=O)[C@H](CC(N)=O)NC(=O)[C@@H](NC(=O)[C@@H](NC(=O)[C@@H](N)[C@@H](C)CC)[C@@H](C)O)C(C)C)C(=O)NCCCC[C@H](NC(=O)[C@H](CCCCNC(=O)CNC(=O)[C@H](CC(C)C)NC(=O)[C@H](CCCNC(=N)N)NC(=O)[C@H](Cc1ccc(O)cc1)NC(=O)[C@H](CC(N)=O)NC(=O)[C@@H](NC(=O)[C@@H](NC(=O)[C@@H](N)[C@@H](C)CC)[C@@H](C)O)C(C)C)NC(=O)CNC(=O)[C@H](CC(C)C)NC(=O)[C@H](CCCNC(=N)N)NC(=O)[C@H](Cc1ccc(O)cc1)NC(=O)[C@H](CC(N)=O)NC(=O)[C@@H](NC(=O)[C@@H](NC(=O)[C@@H](N)[C@@H](C)CC)[C@@H](C)O)C(C)C)C(N)=O)C(C)C)[C@@H](C)O [NLp2] (I: H-ITVNYRLGKK-NH2 / II: H-ITVNYRLGK / III: H-ITVNYRLG / IV: H-ITVNYRLG; amide I:9-IV:C, I:10-II:C, II:9-III:C; N-terminus and C-terminus assumed)",development of ThT fluorescence (Aβ aggregation),Aβ1-42,had no effect
"O=C(O)CNC(=O)C(CS)Cc1ccccc1 (stereo not shown) [Thiorphan, reference compound]",activity of brain-derived NEP,brain-derived NEP,completely blocked
"AENIVDSDDG [NLp4, NL1-derived peptide …]","KD (binding affinities to Aβ1-42, as in the table title)",Aβ1-40,No binding
same,activity of recombinant NEP,[1],had no effect
"AHTKPNRFEA [NLp6, NL1-derived peptide …]","KD (binding affinities to Aβ1-42, as in the table title)",Aβ1-40,No binding
"ASDFDFAVSN [NLp5, NL1-derived peptide …]","KD (binding affinities to Aβ1-42, as in the table title)",Aβ1-40,No binding
"ASFQPAKYA [NLp3, NL1-derived peptide …]","KD (binding affinities to Aβ1-42, as in the table title)",Aβ1-40,No binding
"ATADLHSNFGS [NLp8, NL1-derived peptide …]","KD (binding affinities to Aβ1-42, as in the table title)",Aβ1-40,No binding
Amyloid-β peptide 1-42 (Aβ1-42),Kd,[2],72 nM
Recombinant rat neurexin-1β (NX1β) (from UniProt Q63373 47-391) (natural protein),Kd,[2],6.64 nM
"SGGPKPVMYIHG [NLp1, NL1-derived peptide …]","KD (binding affinities to Aβ1-42, as in the table title)",Aβ1-40,No binding
"SVPVTSAFPTAKQDDA [NLp7, NL1-derived peptide …]",development of ThT fluorescence (Aβ aggregation),Aβ1-42,had no effect
same,"KD (binding affinities to Aβ1-42, as in the table title)",Aβ1-40,No binding
same,activity of recombinant NEP,[1],had no effect
B1,Kd,[3],676 nM
B2,Kd,[3],35.3 nM

# — publication PMC11790763, “A Peptide Motif Covering Splice Site B in Neuroligin-1 Binds to Aβ and Acts as a Neprilysin Inhibitor” (Molecular Neurobiology, 2024)
